Experimental findings from ChEMBL document CHEMBL1201862, “PubChem BioAssay data set” (2004) are described below.

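Exposure lasted 48 hours, with cells grown in 96-well plates and compounds tested at five concentrations. At the GI50, growth is halved.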 Calls of active or inactive are those of the source. Cut-off read from the data, not from the text of the source: active = GI50 up to about 1.1 µM and inactive = higher.

Test systems include A549; SF-268; SK-OV-3; SNB-75; A498; M14; NCI/ADR-RES; PC-3; OVCAR-8; ACHN; DU-145; MOLT-4; SK-MEL-28; UACC-257; TK-10; LOX IMVI; COLO 205; HOP-62; NCI-H460; MDA-MB-435.
Holding throughout (assay): NCI anticancer screen, dose series, 48 h

Regarding `O=C1CC2(CCNCC2)C(=O)N1N1CCOCC1`, the GI50 in the test on A549, with SF-268, with SK-OV-3, in the test on SNB-75, in the test on A498 and with M14 was > 100 µM (inactive) throughout. In addition, the GI50 in the test on NCI/ADR-RES, in the test with PC-3, in the test on OVCAR-8, in the test on ACHN, with DU-145 and in the test on MOLT-4 was > 100 µM (inactive) each time. Also, the GI50 in the test on SK-MEL-28, in the test with UACC-257, with TK-10, with LOX IMVI, in the test on COLO 205 and in the test with HOP-62 was > 100 µM (inactive) in each case. Besides, the GI50 in the test with NCI-H460 was > 100 µM (inactive).

Regarding `CCOC(=O)Nn1c(CC#N)nnc1Cc1ccccc1`, the GI50 in the test with A549, in the test with SF-268, in the test with SNB-75, in the test on M14, in the test with NCI/ADR-RES and in the test on PC-3 was > 100 µM (inactive) in each case. Also, the GI50 in the test with OVCAR-8, with MDA-MB-435, with ACHN, in the test with DU-145, in the test with MOLT-4 and with SK-MEL-28 was > 100 µM (inactive) each time. Also, the GI50 with UACC-257, with TK-10, in the test on HOP-62 and with NCI-H460 was > 100 µM (inactive) in each case.

`CN(CCN(C)C(=S)NN)C(=S)NN`: the GI50 with A549, with SF-268, in the test with SK-OV-3, in the test with SNB-75, with M14 and in the test with PC-3 was > 100 µM (inactive) each time. For the same compound, the GI50 in the test on MDA-MB-435, in the test on ACHN, in the test with DU-145, with MOLT-4, in the test on SK-MEL-28 and in the test on UACC-257 was > 100 µM (inactive) throughout. Moreover, the GI50 in the test on LOX IMVI, with COLO 205, in the test with HOP-62 and with NCI-H460 was > 100 µM (inactive) in each case.

On to `CC(=O)Oc1c2oc3cc(O)c(O)cc3c2c(OC(C)=O)c2oc3cc(O)c(O)cc3c12` [POLYOZELLIN], for which the GI50 in the test with A549 is 35 µM (inactive); in the test on SF-268, 20.7 µM (inactive); with SK-OV-3, 20.8 µM (inactive); with SNB-75 it was 15.8 µM (inactive); with M14, 23.4 µM (inactive); in the test with NCI/ADR-RES, 35.3 µM (inactive). In addition, the GI50 with PC-3 was 19.8 µM (inactive); in the test with OVCAR-8, 20.2 µM (inactive); in the test on MDA-MB-435 it was 1.82 µM (inactive); with ACHN, 20.8 µM (inactive); in the test on MOLT-4 it was 2.64 µM (inactive); in the test with SK-MEL-28, 21.1 µM (inactive). The GI50 in the test on UACC-257 was 19.4 µM (inactive); in the test with TK-10, 18.9 µM (inactive); in the test on LOX IMVI it was 24.5 µM (inactive); with COLO 205 it was 15.4 µM (inactive); in the test on HOP-62, 16.1 µM (inactive); with NCI-H460, 18.6 µM (inactive).

As to `CN1Cc2ccccc2S(=O)(=O)n2cccc2C1=O`, the GI50 in the test with A549, with SK-OV-3, with SNB-75, in the test on A498, in the test on PC-3 and in the test with MDA-MB-435 was > 100 µM (inactive) throughout. The GI50 in the test on ACHN, in the test with DU-145, in the test on MOLT-4, in the test with SK-MEL-28, in the test on UACC-257 and with TK-10 was > 100 µM (inactive) throughout. Also, the GI50 with LOX IMVI, with COLO 205, in the test with HOP-62 and in the test with NCI-H460 was > 100 µM (inactive) throughout.

In the case of `COc1ccc(C2c3cc4c(cc3OC(N3CCOCC3)C2C)OCO4)c(OC)c1OC` (configuration not stated), the GI50 with A549 was 22.9 µM (inactive); in the test with SF-268, 17.4 µM (inactive); in the test on M14, 8.22 µM (inactive); in the test on NCI/ADR-RES it was 12.1 µM (inactive); with PC-3 it was 13.6 µM (inactive); in the test with OVCAR-8, 24.7 µM (inactive). Moreover, the GI50 with MDA-MB-435 was 2.51 µM (inactive); in the test with ACHN, 16.1 µM (inactive); in the test with DU-145 it was > 10 µM (inactive); in the test on MOLT-4, 10.6 µM (inactive); in the test on SK-MEL-28, 14.2 µM (inactive); in the test on UACC-257, 15.9 µM (inactive). Further, the GI50 with TK-10 was 15.5 µM (inactive); with LOX IMVI, 14.5 µM (inactive); with COLO 205, 14.6 µM (inactive); with HOP-62 it was 26.9 µM (inactive); in the test with NCI-H460 it was 20.5 µM (inactive).

Take `Cc1nc(Nc2ccc(Cl)c(Cl)c2)sc1C(=O)/C=C/c1ccc2c(c1)OCO2`: the GI50 was 22.3 µM (inactive) in the test on A549; 24.3 µM (inactive) in the test on SF-268; 18.7 µM (inactive) in the test with SK-OV-3; 14.4 µM (inactive) with SNB-75; 23.3 µM (inactive) with A498; 34.4 µM (inactive) in the test on NCI/ADR-RES. The GI50 in the test with OVCAR-8 was 23.2 µM (inactive); in the test with MDA-MB-435, 20.5 µM (inactive); in the test on ACHN it was 16.8 µM (inactive); in the test on DU-145, > 10 µM (inactive); in the test with MOLT-4 it was 14.9 µM (inactive); in the test on SK-MEL-28, 31.7 µM (inactive). Moreover, the GI50 with UACC-257 was 31.6 µM (inactive); in the test with TK-10 it was 24.5 µM (inactive); in the test with LOX IMVI it was 19.4 µM (inactive); with COLO 205, 24.7 µM (inactive); with HOP-62, 17.9 µM (inactive); with NCI-H460, 34.5 µM (inactive).

For `O=S(=O)(Cc1ccccc1)SCc1ccccc1`, the GI50 with A549 was 30.8 µM (inactive); in the test on SF-268, 36.8 µM (inactive); in the test on SK-OV-3 it was 48.5 µM (inactive); in the test on SNB-75 it was 33.9 µM (inactive); in the test on A498, 25.3 µM (inactive); with M14 it was 14.3 µM (inactive). In addition, the GI50 with OVCAR-8 is 15.2 µM (inactive); with ACHN it was 39.6 µM (inactive); in the test on MOLT-4, 3.09 µM (inactive); in the test with SK-MEL-28 it was 34.1 µM (inactive); with UACC-257, 24.3 µM (inactive); with TK-10, > 48.1 µM (inactive). Further, the GI50 is 16.6 µM (inactive) in the test with LOX IMVI, 19.5 µM (inactive) in the test on COLO 205, 44.6 µM (inactive) with HOP-62 and 27.6 µM (inactive) in the test with NCI-H460.

On to `COc1cc(OC)c(OC)cc1/C=C/c1cc[n+](C)c2ccccc12`, for which the GI50 in the test on A549 was 25.9 µM (inactive); with SF-268, 51.2 µM (inactive); in the test with SK-OV-3 it was 52.2 µM (inactive); with SNB-75, 47.4 µM (inactive); in the test with A498, > 100 µM (inactive); in the test with M14 it was 60.8 µM (inactive). Moreover, the GI50 in the test with NCI/ADR-RES was > 100 µM (inactive); with PC-3, 20.7 µM (inactive); in the test on OVCAR-8, 9.93 µM (inactive); in the test on ACHN, > 100 µM (inactive); in the test with DU-145, 86.9 µM (inactive); in the test on MOLT-4 it was 21.2 µM (inactive). Also, the GI50 is > 100 µM (inactive) in the test with SK-MEL-28; 16.1 µM (inactive) with UACC-257; > 100 µM (inactive) in the test with TK-10; 5.96 µM (inactive) in the test with COLO 205; 4.89 µM (inactive) with HOP-62; 33.2 µM (inactive) with NCI-H460.

On to `COC(=O)/C(=N\NC(=O)c1ccccc1O)C(C#N)c1ccccc1` (configuration not stated), for which the GI50 with A549 was 16.6 µM (inactive); with SF-268, 23.5 µM (inactive); in the test on SK-OV-3, > 45.2 µM (inactive); in the test with SNB-75, 22.5 µM (inactive); in the test on A498, > 25.9 µM (inactive); in the test on M14, 31.4 µM (inactive). Besides, the GI50 in the test with OVCAR-8 was 23.7 µM (inactive); in the test with ACHN it was 19.7 µM (inactive); with MOLT-4 it was 22.3 µM (inactive); with SK-MEL-28 it was > 50 µM (inactive); in the test on UACC-257, 25.9 µM (inactive); with TK-10, > 46.7 µM (inactive). In addition, the GI50 with LOX IMVI was 19.4 µM (inactive); in the test with COLO 205, > 50 µM (inactive); in the test with HOP-62, 20.7 µM (inactive); in the test with NCI-H460 it was 18.9 µM (inactive).

In the case of `C/C=C/[C@H]1O[C@@](OC)([C@@H](C)[C@H](O)[C@H](C)[C@H]2OC(=O)/C(OC)=C/C(C)=C/[C@@H](C)[C@@H](O)[C@@H](C)[C@@H](O)[C@H](C)C/C(C)=C/C=C/[C@@H]2OC)CC(OC2CC(O)C(OC(N)=O)C(C)O2)[C@@H]1C` (some centres not stated), the GI50 was < 0.01 µM (active) with A549; < 0.01 µM (active) in the test with SF-268; 7.48 µM (inactive) with SK-OV-3; 8.99 µM (inactive) in the test on A498; < 0.01 µM (active) with M14; 0.0953 µM (active) in the test with NCI/ADR-RES. Besides, the GI50 in the test on PC-3, in the test on OVCAR-8, with MDA-MB-435, in the test with ACHN, with MOLT-4 and in the test with UACC-257 was < 0.01 µM (active) throughout. Also, the GI50 with TK-10 was 8.79 µM (inactive); with LOX IMVI, < 0.01 µM (active); in the test with COLO 205 it was < 0.01 µM (active); in the test with HOP-62 it was < 0.01 µM (active); in the test with NCI-H460, < 0.01 µM (active).
